This passage reports IC50 results from patent US20090105283A1, “3-HYDROQUINAZOLIN-4-ONE DERIVATIVES FOR USE AS STEAROYL CoA DESATURASE INHIBITORS” (priority 2007, published 2009).

pIC50: −log10 of the molar value.

The test addresses T1, stearoyl-CoA desaturase (SCD) (Rattus norvegicus, UniProt P07308).
T1 construct: The microsomes were quickly thawed and added to assay buffer so that a concentration of 0.4 mg/ml was achieved; from tissue
T1 sequence (P07308 1-358): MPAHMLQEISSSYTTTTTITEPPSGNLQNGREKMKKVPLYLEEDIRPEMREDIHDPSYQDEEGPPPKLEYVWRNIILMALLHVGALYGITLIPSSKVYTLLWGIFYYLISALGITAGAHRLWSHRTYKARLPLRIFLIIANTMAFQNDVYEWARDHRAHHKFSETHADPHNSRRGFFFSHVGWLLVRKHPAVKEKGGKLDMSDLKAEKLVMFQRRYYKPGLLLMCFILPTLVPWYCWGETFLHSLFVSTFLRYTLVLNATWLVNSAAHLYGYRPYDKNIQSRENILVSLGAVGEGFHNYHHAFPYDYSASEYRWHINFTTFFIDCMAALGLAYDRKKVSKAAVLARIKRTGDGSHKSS
Briefly: SCD assay with rat liver microsomes ([3H]stearoyl CoA, adapted from Talamo and Bloch). The test is classed as biochemical. As to conditions: Table 2 (Example 21, procedures of Example 20); rat liver microsomes, [3H]stearoyl CoA substrate. In short, it runs like this:
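Liver microsomes came from diet-induced male Sprague Dawley rats and were used at 0.2 mg/ml final. Assay buffer was Tris pH 7.2 with NADH, ATP, CoA, MgCl2 and 0.1% BSA. Compounds were preincubated 30 min, then reacted 45 min at room temperature with [3H]stearoyl-CoA; after TCA stop and Bio-Bead cleanup, supernatant radioactivity was counted by scintillation.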
With `C[C@@H](c1ccc(Cl)c(Cl)c1)n1cnc2cc(NC(=O)CO)ccc2c1=O` [compound 35, (S)—N-(3-(1-(3,4-dichlorophenyl)ethyl)-4-oxo-3,4-dihydroquinazolin-7-yl)-2-hydroxyacetamide], the pIC50 was 5.74.
Compound `C[C@H](c1ccc(Cl)c(Cl)c1)n1cnc2cc(NC(=O)CO)ccc2c1=O` [compound 36, (R)—N-(3-(1-(3,4-dichlorophenyl)ethyl)-4-oxo-3,4-dihydroquinazolin-7-yl)-2-hydroxyacetamide] had a pIC50 of 7.24.
The compound `O=C(CO)Nc1ccc2ncn(CCc3ccc(Cl)cc3)c(=O)c2c1` [compound 37, N-(3-(4-chlorophenethyl)-4-oxo-3,4-dihydroquinazolin-6-yl)-2-hydroxyacetamide] had a pIC50 of 7.70.
Regarding `O=C(CO)Nc1ccc2ncn(CCc3cccc(Cl)c3)c(=O)c2c1` [compound 38, N-(3-(3-chlorophenethyl)-4-oxo-3,4-dihydroquinazolin-6-yl)-2-hydroxyacetamide], the pIC50 is 5.24.
As to `O=C(CO)Nc1ccc2ncn(CCc3ccc(Cl)cc3Cl)c(=O)c2c1` [compound 39, N-(3-(2,4-dichlorophenethyl)-4-oxo-3,4-dihydroquinazolin-6-yl)-2-hydroxyacetamide], the pIC50 is 5.31.
In turn, `O=C(Nc1ccc2ncn(Cc3cccc(C(F)(F)F)c3)c(=O)c2c1)OCc1ccccc1` [compound 40, benzyl 4-oxo-3-(3-(trifluoromethyl)benzyl)-3,4-dihydroquinazolin-6-ylcarbamate] had a pIC50 of 5.85.
Next, `O=C(Nc1ccc2ncn(CCCOc3ccccc3C(F)(F)F)c(=O)c2c1)OCc1ccccc1` [compound 41, benzyl 4-oxo-3-(3-(2-(trifluoromethyl)phenoxy)propyl)-3,4-dihydroquinazolin-6-ylcarbamate]: 7.16.
With `O=C(CO)Nc1ccc2ncn(CCOc3cc(Cl)ccc3Cl)c(=O)c2c1` [compound 42, N-(3-(2-(2,5-dichlorophenoxy)ethyl)-4-oxo-3,4-dihydroquinazolin-6-yl)-2-hydroxyacetamide], the pIC50 was 6.54.
`O=C(CO)Nc1ccc2ncn(CCCOc3cc(Cl)ccc3Cl)c(=O)c2c1` [compound 43, N-(3-(3-(2,5-dichlorophenoxy)propyl)-4-oxo-3,4-dihydroquinazolin-6-yl)-2-hydroxyacetamide]: the pIC50 is 7.26.
As for `O=C(Nc1ccc2ncn(CCCOc3cc(Cl)ccc3Cl)c(=O)c2c1)OCc1ccccc1` [compound 44, benzyl 3-(3-(2,5-dichlorophenoxy)propyl)-4-oxo-3,4-dihydroquinazolin-6-ylcarbamate], the pIC50 was 7.26.
For the compound `O=C(CO)Nc1ccc2ncn(CCCOc3ccccc3C(F)(F)F)c(=O)c2c1` [compound 45, 2-hydroxy-N-(4-oxo-3-(3-(2-(trifluoromethyl)phenoxy)propyl)-3,4-dihydroquinazolin-6-yl)acetamide], the pIC50 is 6.92.
`O=C(Nc1ccc2ncn(CCCOc3ccccc3F)c(=O)c2c1)OCc1ccccc1` [compound 46, benzyl 3-(3-(2-fluorophenoxy)propyl)-4-oxo-3,4-dihydroquinazolin-6-ylcarbamate] showed a pIC50 of 6.31.
For `CC(=O)OCC(=O)Nc1ccc2ncn(CCCOc3ccccc3F)c(=O)c2c1` [compound 47, 2-(3-(3-(2-fluorophenoxy)propyl)-4-oxo-3,4-dihydroquinazolin-6-ylamino)-2-oxoethyl acetate], the pIC50 was 5.01.
On to `O=C(CO)Nc1ccc2c(=O)n(CCCOc3ccccc3F)cnc2c1` [compound 48, N-(3-(3-(2-fluorophenoxy)propyl)-4-oxo-3,4-dihydroquinazolin-7-yl)-2-hydroxyacetamide], for which the pIC50 was 4.96.
`N#Cc1ccccc1OCCCn1cnc2ccc(NC(=O)OCc3ccccc3)cc2c1=O` [compound 49, benzyl 3-(3-(2-cyanophenoxy)propyl)-4-oxo-3,4-dihydroquinazolin-6-ylcarbamate] had a pIC50 of 6.32.
In turn, `O=C(Nc1ccc2c(=O)n(CCCOc3cc(Cl)ccc3Cl)cnc2c1)OCc1ccccc1` [compound 50, benzyl 3-(3-(2,5-dichlorophenoxy)propyl)-4-oxo-3,4-dihydroquinazolin-7-ylcarbamate] gave a pIC50 of 6.35.
As for `O=C(CO)Nc1ccc2c(=O)n(CCCOc3cc(Cl)ccc3Cl)cnc2c1` [compound 51, N-(3-(3-(2,5-dichlorophenoxy)propyl)-4-oxo-3,4-dihydroquinazolin-7-yl)-2-hydroxyacetamide], the pIC50 was 7.07.
Compound `Cc1ccccc1OCCCn1cnc2ccc(NC(=O)OCc3ccccc3)cc2c1=O` [compound 52, benzyl 4-oxo-3-(3-(o-tolyloxy)propyl)-3,4-dihydroquinazolin-6-ylcarbamate] had a pIC50 of 7.36.
Next, `Cc1ccccc1OCCCn1cnc2ccc(NC(=O)CO)cc2c1=O` [compound 53, 2-hydroxy-N-(4-oxo-3-(3-(o-tolyloxy)propyl)-3,4-dihydroquinazolin-6-yl)acetamide]: 7.00; `O=C(Nc1ccc2ncn(CCCCOc3cc(Cl)ccc3Cl)c(=O)c2c1)OCc1ccccc1` [compound 54, benzyl 3-(4-(2,5-dichlorophenoxy)butyl)-4-oxo-3,4-dihydroquinazolin-6-ylcarbamate]: 6.82.
The value for `O=C(CO)Nc1ccc2ncn(CCCCOc3cc(Cl)ccc3Cl)c(=O)c2c1` [compound 55, N-(3-(4-(2,5-dichlorophenoxy)butyl)-4-oxo-3,4-dihydroquinazolin-6-yl)-2-hydroxyacetamide] was 6.62.
Turning to `O=C(CO)Nc1ccc2ncn(CCCc3ccccc3Cl)c(=O)c2c1` [compound 56, N-(3-(3-(2-chlorophenyl)propyl)-4-oxo-3,4-dihydroquinazolin-6-yl)-2-hydroxyacetamide], the pIC50 was 6.37.
In the case of `O=C(Nc1ccc2ncn(CCOc3ccccc3Cl)c(=O)c2c1)OCc1ccccc1` [compound 57, benzyl 3-(2-(2-chlorophenoxy)ethyl)-4-oxo-3,4-dihydroquinazolin-6-ylcarbamate], the negative logarithm of the IC50 (pIC50) is 6.74.
`O=C(CO)Nc1ccc2ncn(CCOc3ccccc3Cl)c(=O)c2c1` [compound 58, N-(3-(2-(2-chlorophenoxy)ethyl)-4-oxo-3,4-dihydroquinazolin-6-yl)-2-hydroxyacetamide] gave a pIC50 of 6.47.
Next, `O=C(Nc1ccc2ncn(CCCOc3ccccc3Cl)c(=O)c2c1)OCc1ccccc1` [compound 59, benzyl 3-(3-(2-chlorophenoxy)propyl)-4-oxo-3,4-dihydroquinazolin-6-ylcarbamate]: 7.35; `O=C(CO)Nc1ccc2ncn(CCCOc3ccccc3Cl)c(=O)c2c1` [compound 60, N-(3-(3-(2-chlorophenoxy)propyl)-4-oxo-3,4-dihydroquinazolin-6-yl)-2-hydroxyacetamide]: 6.35; `O=C(CO)Nc1ccc2ncn(Cc3cccc(COc4cc(Cl)ccc4Cl)c3)c(=O)c2c1` [compound 61, N-(3-(3-((2,5-dichlorophenoxy)methyl)benzyl)-4-oxo-3,4-dihydroquinazolin-6-yl)-2-hydroxyacetamide]: 6.31.
Next, `O=C(Nc1ccc2ncn(Cc3cccc(COc4cc(Cl)ccc4Cl)c3)c(=O)c2c1)OCc1ccccc1` [compound 62, benzyl 3-(3-((2,5-dichlorophenoxy)methyl)benzyl)-4-oxo-3,4-dihydroquinazolin-6-ylcarbamate]: 6.21.
